Measurements reported in patent publication US12102683B2 (Auson Pharmaceuticals, Inc., priority 2022, dated 2024).
Structures can show the parent of a compound that is named as a salt.

Legend:
[1] = hydrolysate; as worded; cited from earlier work
physchem = test: physchem
Source text: Therefore, propylene glycol was used as a basic solvent in the formulation of the present patent.

COc1ccc([C@@H]2Sc3ccccc3N(CCN(C)C)C(=O)[C@@H]2O)cc1 [deacetyldiltiazem]
Activity relative to the activity of diltiazem hydrochloride [1]: 20%-40%

COc1ccc([C@@H]2Sc3ccccc3N(CCN(C)C)C(=O)[C@@H]2OC(C)=O)cc1 [diltiazem hydrochloride, reference compound]
solubility (physchem; organic solvent or mixture): 79 mg/mL

hydroxypropyl methylcellulose
Solubility in propylene glycol (in words) (physchem): insoluble

sodium carboxymethylcellulose
Solubility in propylene glycol (in words) (physchem): insoluble
